Holding throughout (test): Eurofins kinase selectivity profile against 380 other human recombinant kinases (Table S2)
Assay type in all cases: biochemical

The target in experiment [1] is T1, 380 human recombinant protein kinases (Homo sapiens, UniProt O94804).
T1 construct: purchased Eurofins (Celle Lévescault)
Particulars: LOK(h), read-out: Inhibition rate. In outline:
(§1)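 Outsourced panel: 380 human recombinant kinases; inhibitor tested at various concentrations; purpose: MK2 selectivity check.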

The target of experiment [2] is T2, 380 human recombinant protein kinases (Homo sapiens, UniProt Q9UBE8).
T2 construct: purchased Eurofins (Celle Lévescault)
T2 sequence (Q9UBE8 1-527): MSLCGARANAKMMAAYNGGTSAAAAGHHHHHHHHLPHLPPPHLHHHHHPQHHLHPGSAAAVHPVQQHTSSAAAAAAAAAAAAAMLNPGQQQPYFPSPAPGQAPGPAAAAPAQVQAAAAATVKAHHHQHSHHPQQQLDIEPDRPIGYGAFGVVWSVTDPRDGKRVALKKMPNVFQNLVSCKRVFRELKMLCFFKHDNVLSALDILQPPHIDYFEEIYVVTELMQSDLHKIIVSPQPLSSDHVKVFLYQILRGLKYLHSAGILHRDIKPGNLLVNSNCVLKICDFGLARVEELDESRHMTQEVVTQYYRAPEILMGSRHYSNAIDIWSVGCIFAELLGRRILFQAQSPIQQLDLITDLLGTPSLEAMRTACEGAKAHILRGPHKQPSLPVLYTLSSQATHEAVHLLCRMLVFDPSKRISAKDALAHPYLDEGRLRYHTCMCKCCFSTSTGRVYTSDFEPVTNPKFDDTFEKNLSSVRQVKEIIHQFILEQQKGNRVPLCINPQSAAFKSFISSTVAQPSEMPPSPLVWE
Particulars: NLK(h), read-out: Inhibition rate. In outline:
as §1

For experiment [3], the target named is T3, 380 human recombinant protein kinases (Homo sapiens, UniProt Q05655).
T3 construct: purchased Eurofins (Celle Lévescault)
Particulars: PKCδ(h), read-out: Inhibition rate. In outline:
as §1

The target in experiment [4] is T4, 380 human recombinant protein kinases (Homo sapiens, UniProt Q9P289).
T4 construct: purchased Eurofins (Celle Lévescault)
Particulars: MST4(h), read-out: Inhibition rate. In outline:
as §1

Experiment [5] deals with T5, 380 human recombinant protein kinases (Homo sapiens, UniProt Q8TD19).
T5 construct: purchased Eurofins (Celle Lévescault)
T5 sequence (Q8TD19 1-979): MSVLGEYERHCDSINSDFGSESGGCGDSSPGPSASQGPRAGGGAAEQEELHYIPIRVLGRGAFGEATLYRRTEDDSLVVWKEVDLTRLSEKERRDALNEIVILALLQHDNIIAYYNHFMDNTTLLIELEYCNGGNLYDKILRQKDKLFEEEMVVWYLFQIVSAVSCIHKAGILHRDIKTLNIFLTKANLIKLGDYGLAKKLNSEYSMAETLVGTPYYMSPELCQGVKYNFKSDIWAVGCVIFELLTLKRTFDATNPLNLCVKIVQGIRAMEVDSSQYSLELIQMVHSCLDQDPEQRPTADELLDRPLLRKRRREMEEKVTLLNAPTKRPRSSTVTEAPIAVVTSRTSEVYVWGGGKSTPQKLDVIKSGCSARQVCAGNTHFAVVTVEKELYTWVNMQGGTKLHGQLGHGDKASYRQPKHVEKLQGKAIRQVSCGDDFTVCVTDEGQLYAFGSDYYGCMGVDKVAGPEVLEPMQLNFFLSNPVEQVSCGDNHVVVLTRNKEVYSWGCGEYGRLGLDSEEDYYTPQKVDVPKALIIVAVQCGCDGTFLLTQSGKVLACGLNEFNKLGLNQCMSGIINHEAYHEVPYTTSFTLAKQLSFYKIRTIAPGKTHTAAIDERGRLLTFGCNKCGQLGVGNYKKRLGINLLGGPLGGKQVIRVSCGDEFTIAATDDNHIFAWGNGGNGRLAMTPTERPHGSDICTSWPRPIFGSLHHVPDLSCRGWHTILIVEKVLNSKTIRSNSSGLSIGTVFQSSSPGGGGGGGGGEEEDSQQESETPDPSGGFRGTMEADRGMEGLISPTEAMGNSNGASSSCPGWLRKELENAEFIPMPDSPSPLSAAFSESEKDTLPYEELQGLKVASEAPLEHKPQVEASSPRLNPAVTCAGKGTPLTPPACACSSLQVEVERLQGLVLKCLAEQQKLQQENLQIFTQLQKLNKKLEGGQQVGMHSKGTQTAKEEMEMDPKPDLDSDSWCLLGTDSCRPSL
Particulars: NEK9(h), read-out: Inhibition rate. In outline:
as §1

The target of experiment [6] is T6, 380 human recombinant protein kinases (Homo sapiens, UniProt O15075).
T6 construct: purchased Eurofins (Celle Lévescault)
Particulars: DCAMKL1(h), read-out: Inhibition rate. In outline: as §1

In experiment [7] the target is T7, 380 human recombinant protein kinases (Homo sapiens, UniProt Q9P286).
T7 construct: purchased Eurofins (Celle Lévescault)
Particulars: PAK5(h), read-out: Inhibition rate. In outline:
as §1

Experiment [8] deals with T8, 380 human recombinant protein kinases (Homo sapiens, UniProt Q9UQM7).
T8 construct: purchased Eurofins (Celle Lévescault)
As to conditions: CaMKIIα(h), read-out: Inhibition rate. In outline:
as §1

Consider one compound from PMC11233931, “Remodeling tumor‐associated macrophage for anti‐cancer effects by rational design of irreversible inhibition of mitogen‐activated protein kinase‐activated protein kinase 2” (MedComm, 2024).

T6 sequence (O15075 whole entry): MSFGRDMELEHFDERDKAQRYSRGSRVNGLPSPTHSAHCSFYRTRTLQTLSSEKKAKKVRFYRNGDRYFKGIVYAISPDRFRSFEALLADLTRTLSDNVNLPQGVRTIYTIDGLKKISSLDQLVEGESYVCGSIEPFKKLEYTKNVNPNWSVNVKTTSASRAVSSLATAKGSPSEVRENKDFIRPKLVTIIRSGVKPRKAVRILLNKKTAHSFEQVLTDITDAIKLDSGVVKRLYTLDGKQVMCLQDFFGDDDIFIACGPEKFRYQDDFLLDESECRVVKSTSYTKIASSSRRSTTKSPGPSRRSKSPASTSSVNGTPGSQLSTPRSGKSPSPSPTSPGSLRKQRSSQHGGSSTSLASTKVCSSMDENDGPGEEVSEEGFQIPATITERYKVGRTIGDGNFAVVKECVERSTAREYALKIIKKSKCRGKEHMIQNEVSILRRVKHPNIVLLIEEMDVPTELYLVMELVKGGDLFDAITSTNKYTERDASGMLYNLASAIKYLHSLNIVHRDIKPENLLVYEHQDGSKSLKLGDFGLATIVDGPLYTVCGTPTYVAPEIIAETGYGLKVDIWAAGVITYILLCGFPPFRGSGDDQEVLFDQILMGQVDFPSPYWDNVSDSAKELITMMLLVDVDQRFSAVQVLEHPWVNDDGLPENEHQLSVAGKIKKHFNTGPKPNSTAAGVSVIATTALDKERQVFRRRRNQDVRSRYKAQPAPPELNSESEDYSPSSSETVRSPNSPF
T7 sequence (Q9P286 whole entry): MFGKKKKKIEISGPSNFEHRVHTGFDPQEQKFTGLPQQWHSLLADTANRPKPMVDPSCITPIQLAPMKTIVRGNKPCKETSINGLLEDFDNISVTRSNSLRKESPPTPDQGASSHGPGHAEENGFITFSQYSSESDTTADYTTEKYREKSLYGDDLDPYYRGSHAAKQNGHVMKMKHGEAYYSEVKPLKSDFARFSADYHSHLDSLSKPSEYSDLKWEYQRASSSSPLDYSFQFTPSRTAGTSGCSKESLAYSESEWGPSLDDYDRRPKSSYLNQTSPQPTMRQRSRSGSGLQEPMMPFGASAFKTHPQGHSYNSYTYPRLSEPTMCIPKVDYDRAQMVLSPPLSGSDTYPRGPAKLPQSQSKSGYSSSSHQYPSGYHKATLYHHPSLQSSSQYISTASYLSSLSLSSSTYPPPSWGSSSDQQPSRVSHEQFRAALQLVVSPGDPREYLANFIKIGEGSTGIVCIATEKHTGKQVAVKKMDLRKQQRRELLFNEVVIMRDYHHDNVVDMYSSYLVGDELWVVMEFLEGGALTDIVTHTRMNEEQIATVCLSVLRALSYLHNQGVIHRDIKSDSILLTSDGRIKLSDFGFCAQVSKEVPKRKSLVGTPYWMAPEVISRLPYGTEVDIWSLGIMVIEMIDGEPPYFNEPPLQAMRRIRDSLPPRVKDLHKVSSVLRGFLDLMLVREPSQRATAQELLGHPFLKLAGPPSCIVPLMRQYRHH
T1 sequence (O94804 whole entry): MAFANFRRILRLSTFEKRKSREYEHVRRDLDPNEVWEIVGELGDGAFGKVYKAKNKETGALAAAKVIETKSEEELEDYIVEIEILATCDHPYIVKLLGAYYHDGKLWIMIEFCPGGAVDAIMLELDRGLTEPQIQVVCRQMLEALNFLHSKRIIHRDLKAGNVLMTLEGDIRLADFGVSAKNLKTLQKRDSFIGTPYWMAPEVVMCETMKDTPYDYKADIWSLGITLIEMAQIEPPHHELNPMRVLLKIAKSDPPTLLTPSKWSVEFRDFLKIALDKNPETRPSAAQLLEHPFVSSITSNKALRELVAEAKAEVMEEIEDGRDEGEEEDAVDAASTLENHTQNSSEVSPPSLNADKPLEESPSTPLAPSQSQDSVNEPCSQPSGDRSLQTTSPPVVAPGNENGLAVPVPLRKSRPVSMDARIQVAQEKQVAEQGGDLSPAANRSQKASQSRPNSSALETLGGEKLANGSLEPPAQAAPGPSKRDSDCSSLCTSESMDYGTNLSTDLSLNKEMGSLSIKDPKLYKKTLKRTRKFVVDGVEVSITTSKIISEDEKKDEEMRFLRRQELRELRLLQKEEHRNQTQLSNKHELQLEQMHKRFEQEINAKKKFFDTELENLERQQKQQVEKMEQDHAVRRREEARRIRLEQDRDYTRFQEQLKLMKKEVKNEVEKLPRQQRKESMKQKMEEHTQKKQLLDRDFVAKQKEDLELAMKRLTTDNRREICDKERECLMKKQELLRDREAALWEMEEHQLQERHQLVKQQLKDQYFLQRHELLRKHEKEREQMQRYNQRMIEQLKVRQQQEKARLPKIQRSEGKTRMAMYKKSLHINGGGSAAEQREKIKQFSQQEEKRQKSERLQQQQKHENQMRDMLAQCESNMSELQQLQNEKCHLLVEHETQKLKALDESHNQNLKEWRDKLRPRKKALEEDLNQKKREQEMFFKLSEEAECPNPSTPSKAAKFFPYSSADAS
T4 sequence (Q9P289 whole entry): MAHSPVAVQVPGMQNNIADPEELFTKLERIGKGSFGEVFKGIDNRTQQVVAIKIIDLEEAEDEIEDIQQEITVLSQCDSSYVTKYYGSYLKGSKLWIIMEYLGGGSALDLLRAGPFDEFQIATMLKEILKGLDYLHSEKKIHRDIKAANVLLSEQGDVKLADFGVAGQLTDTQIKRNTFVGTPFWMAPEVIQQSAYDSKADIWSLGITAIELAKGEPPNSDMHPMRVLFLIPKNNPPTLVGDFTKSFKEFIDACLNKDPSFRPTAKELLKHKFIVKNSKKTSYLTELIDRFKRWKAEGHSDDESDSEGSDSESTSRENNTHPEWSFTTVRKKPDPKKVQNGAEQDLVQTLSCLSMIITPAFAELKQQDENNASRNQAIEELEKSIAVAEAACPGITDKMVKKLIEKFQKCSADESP
T8 sequence (Q9UQM7 whole entry): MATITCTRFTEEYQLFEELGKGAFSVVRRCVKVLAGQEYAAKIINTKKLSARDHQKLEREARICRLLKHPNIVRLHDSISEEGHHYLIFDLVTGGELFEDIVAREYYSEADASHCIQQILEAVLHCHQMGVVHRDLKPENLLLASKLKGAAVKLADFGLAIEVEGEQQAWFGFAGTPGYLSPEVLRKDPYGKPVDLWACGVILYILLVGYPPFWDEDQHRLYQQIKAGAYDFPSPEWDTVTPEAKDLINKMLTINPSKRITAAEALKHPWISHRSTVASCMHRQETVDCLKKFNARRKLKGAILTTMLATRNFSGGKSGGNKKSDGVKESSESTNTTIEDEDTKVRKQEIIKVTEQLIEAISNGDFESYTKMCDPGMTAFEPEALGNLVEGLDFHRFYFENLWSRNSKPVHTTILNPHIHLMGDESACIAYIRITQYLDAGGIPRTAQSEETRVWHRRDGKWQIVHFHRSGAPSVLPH
T3 sequence (Q05655 whole entry): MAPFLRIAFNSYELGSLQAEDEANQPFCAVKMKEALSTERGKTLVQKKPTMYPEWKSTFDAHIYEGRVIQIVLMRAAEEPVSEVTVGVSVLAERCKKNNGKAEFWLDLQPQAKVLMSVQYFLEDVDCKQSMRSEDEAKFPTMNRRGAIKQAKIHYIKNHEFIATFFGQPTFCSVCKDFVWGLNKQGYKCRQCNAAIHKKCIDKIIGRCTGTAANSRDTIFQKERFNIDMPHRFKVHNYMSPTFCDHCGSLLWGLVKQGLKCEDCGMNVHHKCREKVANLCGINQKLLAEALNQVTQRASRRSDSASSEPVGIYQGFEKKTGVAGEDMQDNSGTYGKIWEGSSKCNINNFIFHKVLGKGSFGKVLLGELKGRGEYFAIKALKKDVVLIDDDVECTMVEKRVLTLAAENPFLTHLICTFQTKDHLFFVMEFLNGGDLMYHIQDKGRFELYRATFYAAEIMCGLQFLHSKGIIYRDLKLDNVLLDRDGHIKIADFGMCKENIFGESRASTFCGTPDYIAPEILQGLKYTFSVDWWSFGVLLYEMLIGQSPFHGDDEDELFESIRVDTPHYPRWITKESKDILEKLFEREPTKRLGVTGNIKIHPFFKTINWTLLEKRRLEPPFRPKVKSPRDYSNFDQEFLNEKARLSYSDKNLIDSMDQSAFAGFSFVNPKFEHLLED

As to `C=CC(=O)Nc1cc(-c2cc(-c3cc4c([nH]3)CCNC4=O)ccn2)ccc1OC(F)(F)F` [compound 11], the inhibition at 0.01 µM in experiment [1] (10 nM) is -2%; in experiment [2] (10 nM), 6%; in experiment [3] (10 nM) it was 1%; in experiment [4] (10 nM), -5%; in experiment [5] (10 nM) it was -2%; in experiment [6] (10 nM), 3%. In addition, the inhibition at 0.01 µM in experiment [7] (10 nM) was -2%; in experiment [8] (10 nM), -3%. For the same compound, the inhibition at 0.1 µM in experiment [1] (100 nM) was 6%; in experiment [2] (100 nM) it was 16%; in experiment [3] (100 nM), 14%; in experiment [4] (100 nM), -8%; in experiment [5] (100 nM) it was -6%; in experiment [6] (100 nM), -1%. The inhibition at 0.1 µM in experiment [7] (100 nM) was -2%; in experiment [8] (100 nM), -4%. In addition, the inhibition at 1 µM in experiment [1] (1000 nM) is 54%; in experiment [2] (1000 nM) it was 42%; in experiment [3] (1000 nM) it was 9%; in experiment [4] (1000 nM), 2%; in experiment [5] (1000 nM), 1%; in experiment [6] (1000 nM) it was -1%. Also, the inhibition at 1 µM in experiment [7] (1000 nM) and in experiment [8] (1000 nM) was -2% throughout.
